Data: PubChem BioAssay AID1963975 (Molecular Pharmacology Branch, DTP, NCI, 2024)

System: 624824-186-R-J2-PDC multicell spheroids, viability
Test: Anticancer human tumor 624824-186-R-J2-PDC patient-derived colon adenocarcinoma cell line growth inhibition [PI3K]
Settings: for IC50: curve of first compound; for viability, T/C: stronger effect = lower value
Procedure, shortened: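 We assembled tumor spheroids that included a stromal compartment of HUVEC and MSCs, then exposed them to targeted agents alone and together with PI3K pathway inhibitors. Concentration series descended by half-log from clinically achievable Cmax levels. Viability served as the endpoint.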

[1] = second compound 0.0316 µM, first compound 0.0316 µM
[2] = second compound 0.0316 µM, first compound 0.1 µM
[3] = second compound 0.0316 µM, first compound 0.316 µM
[4] = second compound 0.0316 µM, first compound 1 µM
[5] = second compound 0.0316 µM, first compound 3.16 µM
[6] = second compound 0.0316 µM, first compound 10 µM
[7] = second compound 0.1 µM, first compound 0.0316 µM
[8] = second compound 0.1 µM, first compound 0.1 µM
[9] = second compound 0.1 µM, first compound 0.316 µM
[10] = second compound 0.1 µM, first compound 1 µM
[11] = second compound 0.1 µM, first compound 3.16 µM
[12] = second compound 0.1 µM, first compound 10 µM
[13] = second compound 0.316 µM, first compound 0.0316 µM
[14] = second compound 0.316 µM, first compound 0.1 µM
[15] = second compound 0.316 µM, first compound 0.316 µM
[16] = second compound 0.316 µM, first compound 1 µM
[17] = second compound 0.316 µM, first compound 3.16 µM
[18] = second compound 0.316 µM, first compound 10 µM
[19] = second compound 1 µM, first compound 0.0316 µM
[20] = second compound 1 µM, first compound 0.1 µM
[21] = second compound 1 µM, first compound 0.316 µM
[22] = second compound 1 µM, first compound 1 µM
[23] = second compound 1 µM, first compound 3.16 µM
[24] = second compound 1 µM, first compound 10 µM
[25] = second compound 3.16 µM, first compound 0.0316 µM
[26] = second compound 3.16 µM, first compound 0.1 µM
[27] = second compound 3.16 µM, first compound 0.316 µM
[28] = second compound 3.16 µM, first compound 1 µM
[29] = second compound 3.16 µM, first compound 3.16 µM
[30] = second compound 3.16 µM, first compound 10 µM
[31] = second compound 10 µM, first compound 0.0316 µM
[32] = second compound 10 µM, first compound 0.1 µM
[33] = second compound 10 µM, first compound 0.316 µM
[34] = second compound 10 µM, first compound 1 µM
[35] = second compound 10 µM, first compound 3.16 µM
[36] = second compound 10 µM, first compound 10 µM
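Note: spheroids exposed to agents for 7 days before viability read.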
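Throughout, for viability, T/C: 100% = DMSO vehicle treated spheroids.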

Q: Which results are given for C[C@@H](NC(=O)c1ncnc(N)c1Cl)c1ncc(C(=O)Nc2cc(C(F)(F)F)c(Cl)cn2)s1 + Cc1nc(NC(=O)N2CCCC2C(N)=O)sc1-c1ccnc(C(C)(C)C(F)(F)F)c1?
A: IC50 (second compound 0.0316 µM): > 10 µM; IC50 (second compound 0.1 µM): > 10 µM; IC50 (second compound 0.316 µM): > 10 µM; IC50 (second compound 1 µM): > 10 µM; IC50 (second compound 3.16 µM): > 10 µM; IC50 (second compound 10 µM): 1.17 µM; viability, T/C [1]: 103%; viability, T/C [2]: 103%; viability, T/C [3]: 91.8%; viability, T/C [4]: 84.2%; viability, T/C [5]: 73.2%; viability, T/C [6]: 82.4%; viability, T/C [7]: 80.8%; viability, T/C [8]: 84.2%; viability, T/C [9]: 85.7%; viability, T/C [10]: 76.1%; viability, T/C [11]: 84.2%; viability, T/C [12]: 85.5%; viability, T/C [13]: 106%; viability, T/C [14]: 99.8%; viability, T/C [15]: 87.7%; viability, T/C [16]: 63.5%; viability, T/C [17]: 76.2%; viability, T/C [18]: 81.1%; viability, T/C [19]: 101%; viability, T/C [20]: 96.1%; viability, T/C [21]: 102%; viability, T/C [22]: 70.7%; viability, T/C [23]: 68.3%; viability, T/C [24]: 71.5%; viability, T/C [25]: 87.4%; viability, T/C [26]: 92.6%; viability, T/C [27]: 88.8%; viability, T/C [28]: 70.7%; viability, T/C [29]: 58.1%; viability, T/C [30]: 49.7%; viability, T/C [31]: 78%; viability, T/C [32]: 80.4%; viability, T/C [33]: 63.4%; viability, T/C [34]: 54.7%; viability, T/C [35]: 38%; viability, T/C [36]: 40.1%

Q: Which results are given for Cn1ncc(Cl)c1-c1cc(C(=O)NC(CN)Cc2cccc(F)c2)sc1Cl (stereo unspecified) + Cc1nc(NC(=O)N2CCCC2C(N)=O)sc1-c1ccnc(C(C)(C)C(F)(F)F)c1?
A: IC50 (second compound 0.0316 µM): > 10 µM; IC50 (second compound 0.1 µM): 9.82 µM; IC50 (second compound 0.316 µM): 8.5 µM; IC50 (second compound 1 µM): 8.01 µM; IC50 (second compound 3.16 µM): 4.42 µM; IC50 (second compound 10 µM): 3.02 µM; viability, T/C [1]: 58.2%; viability, T/C [2]: 80.2%; viability, T/C [3]: 77.9%; viability, T/C [4]: 82.1%; viability, T/C [5]: 62.6%; viability, T/C [6]: 56.1%; viability, T/C [7]: 78.9%; viability, T/C [8]: 84.3%; viability, T/C [9]: 70.5%; viability, T/C [10]: 75.2%; viability, T/C [11]: 64.9%; viability, T/C [12]: 49.2%; viability, T/C [13]: 88.5%; viability, T/C [14]: 79%; viability, T/C [15]: 87%; viability, T/C [16]: 80%; viability, T/C [17]: 63.5%; viability, T/C [18]: 47.8%; viability, T/C [19]: 70.6%; viability, T/C [20]: 77.8%; viability, T/C [21]: 86.6%; viability, T/C [22]: 74%; viability, T/C [23]: 63.5%; viability, T/C [24]: 46.8%; viability, T/C [25]: 84.1%; viability, T/C [26]: 84.2%; viability, T/C [27]: 71.1%; viability, T/C [28]: 62.8%; viability, T/C [29]: 62.6%; viability, T/C [30]: 34.7%; viability, T/C [31]: 80.7%; viability, T/C [32]: 73.3%; viability, T/C [33]: 64%; viability, T/C [34]: 66.8%; viability, T/C [35]: 49.1%; viability, T/C [36]: 30.9%

Q: For Cn1ncnc1[C@H]1c2n[nH]c(=O)c3cc(F)cc(c23)N[C@@H]1c1ccc(F)cc1 + Cc1nc(NC(=O)N2CCCC2C(N)=O)sc1-c1ccnc(C(C)(C)C(F)(F)F)c1, which IC50 (second compound 0.0316 µM) is on record?
A: > 0.1 µM

Q: And the IC50 (second compound 0.1 µM)?
A: > 0.1 µM

Q: And the IC50 (second compound 0.316 µM)?
A: > 0.1 µM

Q: And the IC50 (second compound 1 µM)?
A: > 0.1 µM

Q: What about the IC50 (second compound 3.16 µM) of the same compound?
A: > 0.1 µM

Q: What about the IC50 (second compound 10 µM) of the same compound?
A: > 0.1 µM

Q: What about the viability, T/C (second compound 0.0316 µM, first compound 0.000316 µM) of the same compound?
A: 89.5%

Q: What about the viability, T/C (second compound 0.0316 µM, first compound 0.001 µM) of the same compound?
A: 79.8%

Q: What about the viability, T/C (second compound 0.0316 µM, first compound 0.00316 µM) of the same compound?
A: 79.5%

Q: What about the viability, T/C (second compound 0.0316 µM, first compound 0.01 µM) of the same compound?
A: 106%

Q: What about the viability, T/C [1] of the same compound?
A: 89%

Q: What about the viability, T/C [2] of the same compound?
A: 101%

Q: What about the viability, T/C (second compound 0.1 µM, first compound 0.000316 µM) of the same compound?
A: 91.8%

Q: What about the viability, T/C (second compound 0.1 µM, first compound 0.001 µM) of the same compound?
A: 87.4%

Q: And the viability, T/C (second compound 0.1 µM, first compound 0.00316 µM)?
A: 105%

Q: And the viability, T/C (second compound 0.1 µM, first compound 0.01 µM)?
A: 80.9%

Q: And the viability, T/C [7]?
A: 70.2%

Q: What about the viability, T/C [8] of the same compound?
A: 86.4%

Q: What about the viability, T/C (second compound 0.316 µM, first compound 0.000316 µM) of the same compound?
A: 95.4%

Q: And the viability, T/C (second compound 0.316 µM, first compound 0.001 µM)?
A: 92.9%

Q: And the viability, T/C (second compound 0.316 µM, first compound 0.00316 µM)?
A: 101%

Q: And the viability, T/C (second compound 0.316 µM, first compound 0.01 µM)?
A: 88%

Q: What about the viability, T/C [13] of the same compound?
A: 108%

Q: And the viability, T/C [14]?
A: 80.4%

Q: What about the viability, T/C (second compound 1 µM, first compound 0.000316 µM) of the same compound?
A: 88.3%

Q: What about the viability, T/C (second compound 1 µM, first compound 0.001 µM) of the same compound?
A: 102%

Q: And the viability, T/C (second compound 1 µM, first compound 0.00316 µM)?
A: 78.1%

Q: What about the viability, T/C (second compound 1 µM, first compound 0.01 µM) of the same compound?
A: 97.1%

Q: What about the viability, T/C [19] of the same compound?
A: 101%

Q: And the viability, T/C [20]?
A: 86.3%

Q: What about the viability, T/C (second compound 3.16 µM, first compound 0.000316 µM) of the same compound?
A: 86.8%

Q: And the viability, T/C (second compound 3.16 µM, first compound 0.001 µM)?
A: 78.6%

Q: What about the viability, T/C (second compound 3.16 µM, first compound 0.00316 µM) of the same compound?
A: 76.3%

Q: What about the viability, T/C (second compound 3.16 µM, first compound 0.01 µM) of the same compound?
A: 82.9%

Q: And the viability, T/C [25]?
A: 92.4%

Q: And the viability, T/C [26]?
A: 82.1%

Q: What about the viability, T/C (second compound 10 µM, first compound 0.000316 µM) of the same compound?
A: 87.5%

Q: And the viability, T/C (second compound 10 µM, first compound 0.001 µM)?
A: 84.7%

Q: What about the viability, T/C (second compound 10 µM, first compound 0.00316 µM) of the same compound?
A: 80.3%

Q: And the viability, T/C (second compound 10 µM, first compound 0.01 µM)?
A: 71.8%

Q: What about the viability, T/C [31] of the same compound?
A: 77.3%

Q: And the viability, T/C [32]?
A: 84.8%
